IC50 data for 23 compounds are collected here from patent US20240317735A1, “HYDROISOQUINOLINE OR HYDRONAPHTHYRIDINE COMPOUNDS FOR THE TREATMENT OF AUTOIMMUNE DISEASE” (Hoffmann-La Roche Inc., priority 2020, published 2024).

This assay concerns the target T1, human TLR7 (Homo sapiens, UniProt Q9NYK1).
T1 construct: host or cells: HEK293 (HEK-Blue hTLR7)
T1 sequence (Q9NYK1 27-1049): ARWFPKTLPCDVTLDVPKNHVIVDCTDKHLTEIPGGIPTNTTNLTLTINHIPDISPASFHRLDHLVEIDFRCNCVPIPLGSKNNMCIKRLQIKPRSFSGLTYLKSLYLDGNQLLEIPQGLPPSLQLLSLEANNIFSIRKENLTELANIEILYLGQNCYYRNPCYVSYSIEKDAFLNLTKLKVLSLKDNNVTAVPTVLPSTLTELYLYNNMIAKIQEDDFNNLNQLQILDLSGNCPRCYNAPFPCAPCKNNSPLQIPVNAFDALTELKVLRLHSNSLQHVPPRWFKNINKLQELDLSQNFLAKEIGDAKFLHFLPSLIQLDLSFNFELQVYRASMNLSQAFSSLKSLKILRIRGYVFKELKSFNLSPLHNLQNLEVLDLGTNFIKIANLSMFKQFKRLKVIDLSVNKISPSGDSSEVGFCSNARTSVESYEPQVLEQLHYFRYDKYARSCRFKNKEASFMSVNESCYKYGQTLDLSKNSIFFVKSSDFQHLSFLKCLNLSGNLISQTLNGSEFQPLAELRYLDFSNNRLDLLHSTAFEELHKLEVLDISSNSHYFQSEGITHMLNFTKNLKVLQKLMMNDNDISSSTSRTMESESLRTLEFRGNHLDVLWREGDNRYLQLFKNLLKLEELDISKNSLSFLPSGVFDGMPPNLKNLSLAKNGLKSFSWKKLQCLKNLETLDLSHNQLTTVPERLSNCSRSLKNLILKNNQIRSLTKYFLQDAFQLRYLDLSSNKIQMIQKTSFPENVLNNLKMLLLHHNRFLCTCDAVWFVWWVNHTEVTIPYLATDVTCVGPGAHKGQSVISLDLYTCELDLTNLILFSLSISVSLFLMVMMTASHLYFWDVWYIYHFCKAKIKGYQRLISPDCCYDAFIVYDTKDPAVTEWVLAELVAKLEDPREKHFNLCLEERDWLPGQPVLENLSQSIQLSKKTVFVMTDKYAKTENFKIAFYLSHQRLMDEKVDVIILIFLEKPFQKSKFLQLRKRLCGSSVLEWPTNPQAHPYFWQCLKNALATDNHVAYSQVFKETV
The assay can be described thus: HEK293-Blue-hTLR-7 cells assay (SEAP reporter, R848 stimulation). The assay is classed as cell-based. To be noted: HEK293-Blue-hTLR7 cells, R848, 20 hrs; read-out: HEK/hTLR7 IC50. The method, then:
The following tests were carried out in order to determine the activity of the compounds of formula (I) and (Ia) in HEK293-Blue-hTLR-7/8/9 cells assay.
A stable HEK293-Blue-hTLR-7 cell line was purchased from InvivoGen (Cat. #: hkb-htlr7, San Diego, California, USA). These cells were originally designed for studying the stimulation of human TLR7 by monitoring the activation of NF-κB. A SEAP (secreted embryonic alkaline phosphatase) reporter gene was placed under the control of the IFN-β minimal promoter fused to five NF-κB and AP-1-binding sites. The SEAP was induced by activating NF-κB and AP-1 via stimulating HEK-Blue hTLR7 cells with TLR7 ligands. Therefore the reporter expression w % as declined by TLR7 antagonist under the stimulation of a ligand, such as R848 (Resiquimod), for incubation of 20 hrs. The cell culture supernatant SEAP reporter activity was determined using QUANTI-Blue™ kit (Cat. #: rep-qb1, Invivogen, San Diego, Ca, USA) at a wavelength of 640 nm, a detection medium that turns purple or blue in the presence of alkaline phosphatase.
HEK293-Blue-hTLR7 cells were incubated at a density of 250,000˜450,000 cells/mL in a volume of 170 μL in a 96-well plate in Dulbecco's Modified Eagle's medium (DMEM) containing 4.5 g/L glucose, 50 U/mL penicillin, […], […] Normocin, 2 mM L-glutamine, 10% (v/v) heat-inactivated fetal bovine serum with addition of 20 μL test compound in a serial dilution in the presence of final DMSO at 1% and 10 μL of 20 uM R848 in above DMEM, perform incubation under 37° C. in a C02 incubator for 20 hrs. Then 20 μL of the supernatant from each well was incubated with 180 μL Quanti-blue substrate solution at 37° C. for 2 hrs and the absorbance was read at 620˜655 nm using a spectrophotometer. The signaling pathway that TLR7 activation leads to downstream NF-κB activation has been widely accepted, and therefore similar reporter assay was modified for evaluating TLR7 antagonist.
With `C[C@H]1CN(c2ccnc3c2cnn3C)Cc2ccc(N3CC4CNC[C@H]4C3=O)cc21` (relative stereo) [Example 17, cis-5-[(4R)-4-methyl-2-(1-methylpyrazolo[3,4-b]pyridin-4-yl)-3,4-dihydro-1H-isoquinolin-6-yl]-1,2,3,3a,6,6a-hexahydropyrrolo[3,4-c]pyrrol-4-one], the IC50 was found to be 8 nM.
Under `C[C@H]1CN(c2ccnc3c2cnn3C)Cc2ccc(N3C[C@@H]4CCNCC4C3=O)cc21` (relative stereo) [Example 55, cis-2-[(4R)-4-methyl-2-(1-methylpyrazolo[3,4-b]pyridin-4-yl)-3,4-dihydro-1H-isoquinolin-6-yl]-3a,4,5,6,7,7a-hexahydro-1H-pyrrolo[3,4-c]pyridin-3-one] stands 7 nM.
As for `C[C@H]1CN(c2ccnc3c2cnn3C)Cc2ccc(N3C[C@@]4(CCNC4)CC3=O)cc21` (single isomer, unassigned) [Example 53], the IC50 was found to be 18 nM.
In the case of `C[C@H]1CN(c2ccnc3c2cnn3C)Cc2ccc(N3C[C@]4(CCNC4)CC3=O)cc21` (single isomer, unassigned) [Example 54], the IC50 was 53 nM.
As for `C[C@H]1CN(c2ccnc3c2cnn3C)Cc2ccc(N3C[C@H]4CCNC[C@H]4C3=O)cc21` (single isomer, unassigned) [Example 56], the IC50 was found to be 9 nM.
As for `C[C@H]1CN(c2ccnc3c2cnn3C)Cc2ccc(N3C[C@@H]4CCNC[C@@H]4C3=O)cc21` (single isomer, unassigned) [Example 57], the IC50 amounted to 8 nM.
With `C[C@H]1CN(c2ccnc3c2cnn3C)Cc2ccc(N3CCNCC3)cc21` [Example 1, (4R)-4-methyl-2-(1-methylpyrazolo[3,4-b]pyridin-4-yl)-6-piperazin-1-yl-3,4-dihydro-1H-isoquinoline], the IC50 worked out at 3 nM.
Consider `Cc1cc(N2Cc3ccc(N4CCNCC4)cc3[C@@H](C)C2)c2cnn(C)c2n1` [Example 2, (4R)-2-(1,6-dimethylpyrazolo[3,4-b]pyridin-4-yl)-4-methyl-6-piperazin-1-yl-3,4-dihydro-1H-isoquinoline], for which the IC50 was determined as 8 nM.
Consider `Cn1ncc2c(N3CCc4cc(N5CCNCC5)ccc4C3)ccnc21` [Example 3, 2-(1-methylpyrazolo[3,4-b]pyridin-4-yl)-6-piperazin-1-yl-3,4-dihydro-1H-isoquinoline], for which the IC50 was 19 nM.
On to `CC1CN(c2ccnc3c2cnn3C)Cc2ccc(N3CCC4(CCNCC4)CC3)cc21` (centres unmarked) [Example 4, 3-[4-methyl-2-(1-methylpyrazolo[3,4-b]pyridin-4-yl)-3,4-dihydro-1H-isoquinolin-6-yl]-3,9-diazaspiro[5.5]undecane], for which the IC50 stood at 4 nM.
With `Cc1cc(N2Cc3ccc(N4CCC5(CCNCC5)CC4)cc3C(C)C2)c2cnn(C)c2n1` (centres unmarked) [Example 5, 3-[2-(1,6-dimethylpyrazolo[3,4-b]pyridin-4-yl)-4-methyl-3,4-dihydro-1H-isoquinolin-6-yl]-3,9-diazaspiro[5.5]undecane], the IC50 worked out at 3 nM.
Take `Cn1ncc2c(N3Cc4ccc(N5CCC6(CCNCC6)CC5)cc4C(C)(C)C3)ccnc21` [Example 6, 3-[4,4-dimethyl-2-(1-methylpyrazolo[3,4-b]pyridin-4-yl)-1,3-dihydroisoquinolin-6-yl]-3,9-diazaspiro[5.5]undecane]: the IC50 was 26 nM.
Turning to `C[C@H]1CN(c2ccnc3c2cnn3C)Cc2ccc(N3CCN(C(=O)C4CCNCC4)CC3)cc21` [Example 7, 4-piperidyl-[4-[(4R)-4-methyl-2-(1-methylpyrazolo[3,4-b]pyridin-4-yl)-3,4-dihydro-1H-isoquinolin-6-yl]piperazin-1-yl]methanone], the IC50 was 18 nM.
On to `C[C@H]1CN(c2ccnc3c2cnn3C)Cc2ccc(N3CCN(C(=O)C4CCCN4)CC3)cc21` (stereo partly drawn) [Example 8, pyrrolidin-2-yl-[4-[(4R)-4-methyl-2-(1-methylpyrazolo[3,4-b]pyridin-4-yl)-3,4-dihydro-1H-isoquinolin-6-yl]piperazin-1-yl]methanone], for which the IC50 worked out at 6 nM.
Under `C[C@H]1CN(c2ccnc3c2cnn3C)Cc2ccc(N3CCN(c4cc5c(cn4)CCNC5)CC3)cc21` [Example 9, 7-[4-[(4R)-4-methyl-2-(1-methylpyrazolo[3,4-b]pyridin-4-yl)-3,4-dihydro-1H-isoquinolin-6-yl]piperazin-1-yl]-1,2,3,4-tetrahydro-2,6-naphthyridine] stands 7 nM; under `C[C@H]1CN(c2ccnc3c2cnn3C)Cc2ccc(N3CCC(N4CCNCC4)CC3)cc21` [Example 10, (4R)-4-methyl-2-(1-methylpyrazolo[3,4-b]pyridin-4-yl)-6-(4-piperazin-1-yl-1-piperidyl)-3,4-dihydro-1H-isoquinoline], 1 nM.
Under `CO[C@@H]1CN(C2CCN(c3ccc4c(c3)[C@@H](C)CN(c3ccnc5c3cnn5C)C4)CC2)C[C@H]1N` [Example 11, (3R,4R)-4-methoxy-1-[1-[(4R)-4-methyl-2-(1-methylpyrazolo[3,4-b]pyridin-4-yl)-3,4-dihydro-1H-isoquinolin-6-yl]-4-piperidyl]pyrrolidin-3-amine] stands 2 nM; under `C[C@H]1CN(c2ccnc3c2cnn3C)Cc2ccc(N3CCN(C(=O)C4CNCCO4)CC3)cc21` (stereo partly drawn) [Example 12, morpholin-2-yl-[4-[(4R)-4-methyl-2-(1-methylpyrazolo[3,4-b]pyridin-4-yl)-3,4-dihydro-1H-isoquinolin-6-yl]piperazin-1-yl]methanone], 9 nM; under `C[C@H]1CN(c2ccnc3c2cnn3C)Cc2ccc(N3CCC(O)(CN(C)C)CC3)cc21` [Example 13, 4-[(dimethylamino)methyl]-1-[(4R)-4-methyl-2-(1-methylpyrazolo[3,4-b]pyridin-4-yl)-3,4-dihydro-1H-isoquinolin-6-yl]piperidin-4-ol], 7 nM.
In the case of `Cc1cc(N2Cc3ccc(N4CCC(O)(CN(C)C)CC4)cc3[C@@H](C)C2)c2cnn(C)c2n1` [Example 14, 4-[(dimethylamino)methyl]-1-[(4R)-2-(1,6-dimethylpyrazolo[3,4-b]pyridin-4-yl)-4-methyl-3,4-dihydro-1H-isoquinolin-6-yl]piperidin-4-ol], the IC50 came to 8 nM.
Under `CC1CN(c2ccc3c(c2)[C@@H](C)CN(c2ccnc4c2cnn4C)C3)CCN1` (stereo partly drawn) [Example 15, (4R)-4-methyl-6-(3-methylpiperazin-1-yl)-2-(1-methylpyrazolo[3,4-b]pyridin-4-yl)-3,4-dihydro-1H-isoquinoline] stands 4 nM; under `C[C@H]1CN(c2ccnc3c2cnn3C)Cc2ccc(N3CC4(CCNCC4)CC3=O)cc21` [Example 16, 2-[(4R)-4-methyl-2-(1-methylpyrazolo[3,4-b]pyridin-4-yl)-3,4-dihydro-1H-isoquinolin-6-yl]-2,8-diazaspiro[4.5]decan-3-one], 5 nM.
For the compound `C[C@H]1CN(c2ccnc3c2cnn3C)Cc2ccc(OC[C@H]3CNCCN3)cc21` [Example 18, (4R)-4-methyl-2-(1-methylpyrazolo[3,4-b]pyridin-4-yl)-6-[[(2R)-piperazin-2-yl]methoxy]-3,4-dihydro-1H-isoquinoline], the IC50 worked out at 8 nM.
